Experimental data as given in patent publication US10711000B2 (Fronthera U.S. Pharmaceuticals LLC, priority 2018, dated 2020).
Read-outs that look alike come from different tables or passages of the source.

Target: T1, Autotaxin (Homo sapiens, UniProt Q13822)
T1 construct: from tissue; host or cells: pooled human plasma
Experiment: LPA formation in pooled human plasma (ex vivo autotaxin inhibition)
Format: biochemical
Conditions: 2 hours incubation
Protocol: Autotaxin is a plasma phosphodiesterase that converts lysophosphatidylcholine (LPC) into lysophosphatidic acid (LPA), therefore LPA formation was used to evaluate the potency of autotaxin inhibitors. The potency of compound was evaluated ex vivo in pooled human plasma.
Various concentrations of compound were incubated with plasma for 2 hours, and the LPA 18:2 and 20:4 concentration was measured by LC/MS/MS. To determine the LPA18:2 or 20:4 concentration in study plasma, a 10× calibration standard of LPA 18:2 or 20:4 were prepared by serial dilution in butyl alcohol: 20000, 10000, 5000, 2000, 1000, 500, 200, 100, 50, 20, and 10 ng/mL. 3 μL of calibration standard solution was added into 27.0 μL of blank plasma in 1.5-mL microcentrifuge tubes to generate 1× calibration standards. The 30.0 μL of standards or study plasma was added into 1.5-mL microcentrifuge tubes. 200 μL of butyl alcohol (containing 25.0 ng/mL LPA17:0 for internal control) was added into each 1.5-mL microcentrifuge tube containing study plasma or calibration standards. After vortexing for 1 minute and centrifuging at 10000 rpm for 10 min, 180 μL of supernatant was transferred into a 96-well plate and the LPA18:2 concentration in the plasma was quantitated using LC/MS/MS together with standards. Briefly, 8 μL of the solutions were injected for LC-MS/MS analysis using an ACQUITY UPLC BEH C18 column (2.1×50 mm, 1.7 μm) with mobile phase A [20 mM NH4OAC in water (0.1% FA)] and phase B [5 mM NH4OAC in water/0.2% FA in ACN=5:95]. Mass spectrometer parameters optimization for LPA18:2 were performed by Deprotonated molecular ion at m/z 433.2 ([M−H]^−) for LPA18:2, 457.2 for LPA20:4 and abundant product ion at m/z 152.8 for both LPA18:2 and LPA20:4 were obtained. Quantitative data were acquired in multiple reaction monitoring (MRM) negative electrospray ionization mode
The inhibition rate of LPA formation was determined by comparing the levels of LPA in treated and non-treated plasma. The data was plotted against the corresponding concentration of compound and the IC50 was calculated through non-linear regression fitting.

[1] = LPA 18:2 by LC/MS/MS, read-out: LPA formation (18:2) (IC50)
[2] = LPA 20:4 by LC/MS/MS, read-out: LPA formation (20:4) (IC50)

| Structure (SMILES) | IC50 [1] [nM] | IC50 [2] [nM] |
| --- | --- | --- |
| CCc1nn2c(C)cc(N3CC4(CN(C(=O)N5CCN(C)CC5)C4)C3)cc2c1N(C)c1nc(-c2ccc(F)cc2)c(C#N)s1 [Example 32, 2-((2-ethyl-7-methyl-5-(6-(4-methylpiperazine-1-carbonyl)-2,6-diazaspiro[3.3]heptan-2-yl)pyrazolo[1,5-a]pyridin-3-yl)(methyl)amino)-4-(4-fluorophenyl)thiazole-5-carbonitrile] | ≤ 100 | ≤ 100 |
| CCc1nn2c(C)cc(N3CC4(CN(C(=O)C5CCN(C)CC5)C4)C3)cc2c1N(C)c1nc(-c2ccc(F)cc2)c(C#N)s1 [Example 33, 2-((2-ethyl-7-methyl-5-(6-(1-methylpiperidine-4-carbonyl)-2,6-diazaspiro[3.3]heptan-2-yl)pyrazolo[1,5-a]pyridin-3-yl)(methyl)amino)-4-(4-fluorophenyl)thiazole-5-carbonitrile] | ≤ 100 | 100 to 500 |
| CCc1nn2c(C)cc(N3CC4(CN(C(=O)OC5CCOC5)C4)C3)cc2c1N(C)c1nc(-c2ccc(F)cc2)c(C#N)s1 (centres unmarked) [Example 34, tetrahydrofuran-3-yl 6-(3-((5-cyano-4-(4-fluorophenyl)thiazol-2-yl)(methyl)amino)-2-ethyl-7-methylpyrazolo[1,5-a]pyridin-5-yl)-2,6-diazaspiro[3.3]heptane-2-carboxylate] | 100 to 500 | 100 to 500 |
| CCc1nn2c(C)cc(N3CC4(C3)CN(c3ncco3)C4)cc2c1N(C)c1nc(-c2ccc(F)cc2)c(C#N)s1 [Example 35, 2-((2-ethyl-7-methyl-5-(6-(oxazol-2-yl)-2,6-diazaspiro[3.3]heptan-2-yl)pyrazolo[1,5-a]pyridin-3-yl)(methyl)amino)-4-(4-fluorophenyl)thiazole-5-carbonitrile] | 100 to 500 | 100 to 500 |
| CCc1nn2c(C)cc(N3CCC4(CN(C(=O)N5CC(O)C5)C4)C3)cc2c1N(C)c1nc(-c2ccc(F)cc2)c(C#N)s1 [Example 36, 2-((2-ethyl-5-(2-(3-hydroxyazetidine-1-carbonyl)-2,6-diazaspiro[3.4]octan-6-yl)-7-methylpyrazolo[1,5-a]pyridin-3-yl)(methyl)amino)-4-(4-fluorophenyl)thiazole-5-carbonitrile] | ≤ 100 | ≤ 100 |
| CCc1nn2c(C)cc(N3CCC4(CCN(C(=O)N5CC(O)C5)C4)CC3)cc2c1N(C)c1nc(-c2ccc(F)cc2)c(C#N)s1 [Example 37, 2-((2-ethyl-5-(2-(3-hydroxyazetidine-1-carbonyl)-2,8-diazaspiro[4.5]decan-8-yl)-7-methylpyrazolo[1,5-a]pyridin-3-yl)(methyl)amino)-4-(4-fluorophenyl)thiazole-5-carbonitrile] | ≤ 100 | ≤ 100 |
| CCc1nn2c(C)cc(N3CC4(CN(C(=O)C5CCCO5)C4)C3)cc2c1N(C)c1nc(-c2ccc(F)cc2)c(C#N)s1 (centres unmarked) [Example 38, 2-((2-ethyl-7-methyl-5-(6-(tetrahydrofuran-2-carbonyl)-2,6-diazaspiro[3.3]heptan-2-yl)pyrazolo[1,5-a]pyridin-3-yl)(methyl)amino)-4-(4-fluorophenyl)thiazole-5-carbonitrile] | ≤ 100 | ≤ 100 |
| CCc1nn2c(C)cc(N3CC4(CN(C(=O)[C@H]5CCOC5)C4)C3)cc2c1N(C)c1nc(-c2ccc(F)cc2)c(C#N)s1 [Example 39, (S)-2-((2-ethyl-7-methyl-5-(6-(tetrahydrofuran-3-carbonyl)-2,6-diazaspiro[3.3]heptan-2-yl)pyrazolo[1,5-a]pyridin-3-yl)(methyl)amino)-4-(4-fluorophenyl)thiazole-5-carbonitrile] | ≤ 100 | ≤ 100 |
| CCc1nn2c(C)cc(N3CC4(CN(C(=O)[C@@H]5CCOC5)C4)C3)cc2c1N(C)c1nc(-c2ccc(F)cc2)c(C#N)s1 [Example 40, (R)-2-((2-ethyl-7-methyl-5-(6-(tetrahydrofuran-3-carbonyl)-2,6-diazaspiro[3.3]heptan-2-yl)pyrazolo[1,5-a]pyridin-3-yl)(methyl)amino)-4-(4-fluorophenyl)thiazole-5-carbonitrile] | ≤ 100 | ≤ 100 |
| CCc1nn2c(C)cc(N3CC4(CN(C(=O)C5CCOCC5)C4)C3)cc2c1N(C)c1nc(-c2ccc(F)cc2)c(C#N)s1 [Example 41, 2-((2-ethyl-7-methyl-5-(6-(tetrahydro-2H-pyran-4-carbonyl)-2,6-diazaspiro[3.3]heptan-2-yl)pyrazolo[1,5-a]pyridin-3-yl)(methyl)amino)-4-(4-fluorophenyl)thiazole-5-carbonitrile] | ≤ 100 | ≤ 100 |
| CCc1nn2c(C)cc(N3CC4(CN(C(=O)N5CCOCC5)C4)C3)cc2c1N(C)c1nc(-c2ccc(F)cc2)c(C#N)s1 [Example 42] | ≤ 100 | ≤ 100 |
| CCc1nn2c(C)cc(N3CCC4(CN(C(=O)C5CCOCC5)C4)C3)cc2c1N(C)c1nc(-c2ccc(F)cc2)c(C#N)s1 [Example 43, 2-((2-ethyl-7-methyl-5-(2-(tetrahydro-2H-pyran-4-carbonyl)-2,6-diazaspiro[3.4]octan-6-yl)pyrazolo[1,5-a]pyridin-3-yl)(methyl)amino)-4-(4-fluorophenyl)thiazole-5-carbonitrile] | ≤ 100 | ≤ 100 |
| CCc1nn2c(C)cc(N3CC4(CCN(C(=O)C5CCOCC5)C4)C3)cc2c1N(C)c1nc(-c2ccc(F)cc2)c(C#N)s1 [Example 44, 2-((2-ethyl-7-methyl-5-(6-(tetrahydro-2H-pyran-4-carbonyl)-2,6-diazaspiro[3.4]octan-2-yl)pyrazolo[1,5-a]pyridin-3-yl)(methyl)amino)-4-(4-fluorophenyl)thiazole-5-carbonitrile] | ≤ 100 | ≤ 100 |
| CCc1nn2c(C)cc(N3CC4(CCN(C(=O)[C@H]5CCOC5)C4)C3)cc2c1N(C)c1nc(-c2ccc(F)cc2)c(C#N)s1 [Example 45, (S)-2-((2-ethyl-7-methyl-5-(6-(tetrahydrofuran-3-carbonyl)-2,6-diazaspiro[3.4]octan-2-yl)pyrazolo[1,5-a]pyridin-3-yl)(methyl)amino)-4-(4-fluorophenyl)thiazole-5-carbonitrile] | ≤ 100 | ≤ 100 |
| CCc1nn2c(C)cc(N3CC4(CCN(C(=O)[C@H]5CCCO5)C4)C3)cc2c1N(C)c1nc(-c2ccc(F)cc2)c(C#N)s1 [Example 46, (R)-2-((2-ethyl-7-methyl-5-(6-(tetrahydrofuran-2-carbonyl)-2,6-diazaspiro[3.4]octan-2-yl)pyrazolo[1,5-a]pyridin-3-yl)(methyl)amino)-4-(4-fluorophenyl)thiazole-5-carbonitrile] | 100 to 500 | 100 to 500 |
| CCc1nn2c(C)cc(N3CC4(CCN(C(=O)C5CN(C)C5)C4)C3)cc2c1N(C)c1nc(-c2ccc(F)cc2)c(C#N)s1 [Example 47, 2-((2-ethyl-7-methyl-5-(6-(1-methylazetidine-3-carbonyl)-2,6-diazaspiro[3.4]octan-2-yl)pyrazolo[1,5-a]pyridin-3-yl)(methyl)amino)-4-(4-fluorophenyl)thiazole-5-carbonitrile] | ≤ 100 | 100 to 500 |
| CCc1nn2c(C)cc(N3CCC4(CN(C(=O)[C@H]5CCCO5)C4)C3)cc2c1N(C)c1nc(-c2ccc(F)cc2)c(C#N)s1 [Example 49, (R)-2-((2-ethyl-7-methyl-5-(2-(tetrahydrofuran-2-carbonyl)-2,6-diazaspiro[3.4]octan-6-yl)pyrazolo[1,5-a]pyridin-3-yl)(methyl)amino)-4-(4-fluorophenyl)thiazole-5-carbonitrile] | ≤ 100 | ≤ 100 |
| CCc1nn2c(C)cc(N3CCC4(CCN(C)C4=O)CC3)cc2c1N(C)c1nc(-c2ccc(F)cc2)c(C#N)s1 [Example 50, 2-((2-ethyl-7-methyl-5-(2-methyl-1-oxo-2,8-diazaspiro[4.5]decan-8-yl)pyrazolo[1,5-a]pyridin-3-yl)(methyl)amino)-4-(4-fluorophenyl)thiazole-5-carbonitrile] | > 1000 | > 1000 |
| CCc1nn2c(C)cc(N3CCC4(CN(C(=O)[C@H]5CCOC5)C4)C3)cc2c1N(C)c1nc(-c2ccc(F)cc2)c(C#N)s1 [Example 51, (S)-2-((2-ethyl-7-methyl-5-(2-(tetrahydrofuran-3-carbonyl)-2,6-diazaspiro[3.4]octan-6-yl)pyrazolo[1,5-a]pyridin-3-yl)(methyl)amino)-4-(4-fluorophenyl)thiazole-5-carbonitrile] | ≤ 100 | ≤ 100 |
